# Measurements published in patent US5206250A, “Bis-naphthalimides containing amide and thioamide linkers as anticancer agents” (Du Pont Merck Pharmaceutical Company, priority 1991, dated 1993).
# Tested on: L1210 cells
# Assay: In vitro Growth Inhibitory Activity Determination (L1210 cells, MTT)
# Assay type: cell-based
# Conditions: Mus musculus, 72 h, 3 days incubation at 37° C., dose of drug that inhibits the growth of cells to one half that of the control cells, read-out: ID50 (the source's name)
# Procedure: L1210 cells were maintained in RPMI=1640 a medium supplemented with 10% heat inactivated fetal bovine serum and […] mercaptomethanol/liter medium (RPMI-L).
# Exponential growing L1210 cells (1×10^3 cells) in 0.1 mL medium were seeded on day 0 in a 96-well microtiter plate. On day 1, 0.1 mL aliquot of medium containing graded concentration of test analogs was added to the initial volume. After incubation at 37° C. in a humidified incubator for 3 days, the plates were centrifuged briefly and […] of the growth medium was removed. Cell cultures were incubated with […] of 3-(4, 5-dimethylthiazol-2yl)-2,5- diphenyltetrazolium bromide (MTT; 1 mg/ml in Dulbecco's phosphate buffer saline) for 4 hours at 37° C. The resulting purple formazan precipitate was solubilized with […] of 0.04 N HCl in isopropyl alcohol. Absorbance was read in a Titertek Multiskan MCC scaning well spectrophotometer (Flow Laboratories) at a test wavelength of 570 nm and a reference wavelength of 630 nm.
# The absorbances were stored on a floppy disk on a IBM-XT and uploaded on to a VAX computer.
# Y=((AM - Ao)/(1+(X/ID50)n))+Ao
# Am=absorbance of the control cells
# Ao=absorbance of the cells in the presence of highest drug conc.
# ID50 =dose of drug that inhibits the growth of cells to one half that of the control cells.
row,SMILES,IC50 [µg/mL]
1,C[C@@H](C(=O)NCCCNC(=O)[C@H](C)N1C(=O)c2cccc3cc([N+](=O)[O-])cc(c23)C1=O)N1C(=O)c2cccc3cc([N+](=O)[O-])cc(c23)C1=O [Example 5],0.025
2,C[C@@H](C(=O)NCCCCNC(=O)[C@H](C)N1C(=O)c2cccc3cc([N+](=O)[O-])cc(c23)C1=O)N1C(=O)c2cccc3cc([N+](=O)[O-])cc(c23)C1=O [Example 4],0.36
3,CSCC[C@@H](C(=O)NCCCNC(=O)[C@H](CCSC)N1C(=O)c2cccc3cc([N+](=O)[O-])cc(c23)C1=O)N1C(=O)c2cccc3cc([N+](=O)[O-])cc(c23)C1=O [Example 3],0.12
4,"C[C@H](C(=O)NCCNC(=O)[C@@H](C)N1C(=O)c2cccc3cc([N+](=O)[O-])cc(c23)C1=O)N1C(=O)c2cccc3cc([N+](=O)[O-])cc(c23)C1=O [Example 2, (R,R)-N,N'-1,2-ethanediylbis[α-methyl-5-nitro-1,3-dioxo-1H-benz[de]isoquinoline-2(3H)-acetamide]]",0.033
5,O=C(CCN1C(=O)c2cccc3cc([N+](=O)[O-])cc(c23)C1=O)NCCNC(=O)CCN1C(=O)c2cccc3cc([N+](=O)[O-])cc(c23)C1=O [Example 9],15.1
6,O=C(CCN1C(=O)c2cccc3cc([N+](=O)[O-])cc(c23)C1=O)NCCCNC(=O)CCN1C(=O)c2cccc3cc([N+](=O)[O-])cc(c23)C1=O [Example 8],> 20
7,"C[C@@H](C(=S)NCCNC(=S)[C@H](C)N1C(=O)c2cccc3cc([N+](=O)[O-])cc(c23)C1=O)N1C(=O)c2cccc3cc([N+](=O)[O-])cc(c23)C1=O [Example 6, (S,S)-N,N'-1,2-ethanediylbis[α-methyl-5-nitro-1,3-dioxo-1H-benz[de]isoquinoline-2(3H)ethanethioamide]]",0.184
8,"C[C@@H](C(=O)NCCNC(=O)[C@H](C)N1C(=O)c2cccc3cc([N+](=O)[O-])cc(c23)C1=O)N1C(=O)c2cccc3cc([N+](=O)[O-])cc(c23)C1=O [Example 1, (S,S)-N,N'-1,2-ethanediylbis[α-methyl-5-nitro-1,3-dioxo-1H-benz[de]isoquinoline-2(3H)-acetamide]]",0.61
9,O=C(CCN1C(=O)c2cccc3cc([N+](=O)[O-])cc(c23)C1=O)NCCCCNC(=O)CCN1C(=O)c2cccc3cc([N+](=O)[O-])cc(c23)C1=O [Example 7],19
